Patent US20140348749A1, “IDENTIFICATION AND TREATMENT OF TUMORS SENSITIVE TO GLUCOSE LIMITATION” (Whitehead Institute for Biomedical Research, priority 2013, published 2014)
Entries after “also recorded” stand apart in the source; their conditions may differ. Read-outs that look alike come from different tables or passages of the source.

Key:
[1] = tested on: glucose limitation sensitive or resistant cell lines
Experimental: (§1) 250,000 cells then were attached to the plate by centrifugation at 2200 rpm without brakes for 5 min. For adherent cells, 40,000 to 80,000 cells were plated the night before the experiments. […] For spare respiratory capacity measurements, increasing FCCP concentrations (0.1, 0.5 and 2 uM) were used in order to assess maximum OCR of each cell line. For basal oxygen consumption measurements, cell number or protein concentration was used for normalization.
Metabolic responses of cell lines to mitochondrial uncoupling were analyzed by treating cells from a number of glucose limitation sensitive or resistant cell lines with the mitochondrial uncoupling agent FCCP and measuring OCR.

[2] = tested on: glucose limitation sensitive and glucose limitation resistant tumor cell lines; assay: Proliferation of tumor cell lines exposed to metformin under low glucose; assay type: cell-based
Experimental: We tested the sensitivity of a panel of glucose limitation sensitive and glucose limitation resistant tumor cell lines to treatment with metformin, a compound that inhibits OXPHOS at least in part by inhibiting complex 1. Cells were exposed to 2 mM metformin for 3 days.

[3] = tested on: tumors from glucose limitation resistant cell line NCI-H82; assay: Metformin treatment of mice with established tumors; assay type: in vivo; conditions: metformin 400 mg/kg, close to 3 weeks
Experimental: (§2) In vivo data was obtained initially using one cell line that is resistant to glucose limitation (NCI-H82) and one cell line that is sensitive to glucose limitation (NCI-H929). Mice harboring established tumors derived from these cell lines were treated with metformin (400 mg/kg) or vehicle (PBS) for close to 3 weeks and tumor size was measured. The tumor sizes were averaged for all tumors in that particular group at the end. […] Tumors from the sensitive line are on average half the size in mice treated with metformin than in mice treated with vehicle.

[4] = tested on: tumors from glucose limitation sensitive cell line NCI-H929; assay: as above; assay type: in vivo; conditions: metformin 400 mg/kg, close to 3 weeks
Experimental: as §2

[5] = tested on: panel of 8 cell lines with varying expression of CYC1 and UQCRC1; assay: Metformin sensitivity versus CYC1 and UQCRC1 expression in a panel of 8 cell lines; assay type: cell-based; conditions: 1 mM glucose as low glucose condition
Experimental: We tested the hypothesis that expression of CYC1 and UQCRC1 could predict sensitivity to metformin under conditions in which glucose is limiting. […] 1 mM glucose was used as a low glucose condition in this experiment.

[6] = among tetracycline-class antibiotics; cited from earlier work
143B Rho cells = assay: Proliferation of cells lacking mtDNA with phenformin; conditions: 0.75 mM or 10 mM glucose
[7] = tested on: cell lines with mtDNA-encoded Complex I mutations or impaired glucose utilization
Cal-62 cells = assay: Long term culture of mtDNA mutant cells in phenformin; assay type: cell-based; conditions: Cal-62, 1.5 months, 5-20 uM phenformin
Experimental: Cells were split 1:10 when nearing confluence. […] The ratio of wild type to mutant mtDNA was calculated by summing the 11 Sanger Sequencing peak height measurements per nucleotide position for the wild type and mutant allele allowing for the percent mutant calculated. These values were averaged over three nucleotide positions for which the base in the wild type and mutant sequence differs.

[8] = tested on: xenografts of mtDNA mutant cells expressing NDI1; assay: Phenformin in drinking water, xenografts of NDI1-expressing cells; assay type: in vivo, mice
Experimental: (§3) Further in vivo experiments were conducted using additional tumor cell lines. Xenografts were initiated with 2-5 million cells per injection site implanted subcutaneously into the right and left flanks of 5-8 week old male NOD.CB 17 Scid/J mice (Jackson Labs). Once tumours were palpable in all animals (>50 mm^3 volume by caliper measurements), mice were assigned randomly into biguanide treated or untreated groups and caliper measurements were taken every 3-4 days until tumour burden approached the limits set by institutional guidelines. Tumour volume was assessed according to the formula ½*W*W*L or 4/3*3.14*W/2*L/2*D/2 for large tumors. […] All experiments involving mice were carried out with approval from the Committee for Animal Care at MIT and under supervision of the Department of Comparative Medicine at MIT.

BxPC3 xenografts = assay: Phenformin in drinking water, tumour xenografts; assay type: in vivo, mice; conditions: BxPC3 (mtDNA mutations); phenformin 1.7 mg/ml in drinking water
Experimental: as §3

NCI-H929 xenografts = assay: Phenformin in drinking water, tumour xenografts; assay type: in vivo, mice; conditions: NCI-H929 (poor glucose consumption); phenformin 1.7 mg/ml in drinking water
Experimental: as §3

U-937 xenografts = assay: Phenformin in drinking water, tumour xenografts; assay type: in vivo, mice; conditions: U-937 (mtDNA mutations); phenformin 1.7 mg/ml in drinking water
Experimental: as §3

Cal-62 xenografts = assay: Phenformin in drinking water, tumour xenografts; assay type: in vivo, mice; conditions: Cal-62 (mtDNA mutations); phenformin 1.7 mg/ml in drinking water
Experimental: as §3

KMS-26 xenografts = assay: Phenformin in drinking water, tumour xenografts; assay type: in vivo, mice
Experimental: as §3

[9] = tested on: cells with mutations in Complex I; assay: Oxygen consumption rate (OCR) with phenformin, control or NDI1-expressing lines; assay type: cell-based
Experimental: as §1

N#CC(C#N)=NNc1ccc(OC(F)(F)F)cc1 [FCCP, Carbonyl cyanide 4-(trifluoromethoxy)phenylhydrazone]
increase in OCR upon FCCP ([1]; glucose limitation resistant cell lines): much greater increase in OCR | increase in OCR upon FCCP ([1]; glucose limitation sensitive cells): only a modest increase

CN(C)C(=N)NC(=N)N [metformin, N,N-dimethylimidodicarbonimidic diamide]
sensitivity to metformin (proliferation) of glucose limitation sensitive versus resistant cell lines ([2]; 2 mM metformin, 3 days, 0.75 mM glucose): markedly more sensitive; also recorded: greater inhibitory effects on proliferation | sensitivity of U937 cells to metformin ([2]; U937 cell line): sensitive | cleaved caspase 3 in tumors compared with vehicle [3]: not observed | effect on size of tumors compared with vehicle (PBS) [3]: did not affect size of tumors | cleaved caspase 3 in tumors compared with vehicle [4]: increase in cleaved caspase 3; also recorded: increased level of cleaved caspase 3 | reduction in size of tumors compared with vehicle (PBS) [4]: approximately 50% | tumor size in metformin treated versus vehicle treated mice [4]: half the size | relation of UQCRC1+CYC1 expression to metformin sensitivity [5]: correlated with sensitivity to metformin; also recorded: increased sensitivity

CN(C)c1ccc(O)c2c1C[C@H]1C[C@H]3[C@H](N(C)C)C(O)=C(C(N)=O)C(=O)[C@@]3(O)C(O)=C1C2=O [minocycline, (2E,4S,4aR,5aS,12aR)-2-(amino-hydroxy-methylidene)-4,7-bis(dimethylamino)-10,11,12a-trihydroxy-4a,5,5a,6-tetrahydro-4H-tetracene-1,3,12-trione]
penetration into organs [6]: greatest penetration into certain organs such as the prostate and brain

N=C(N)NC(=N)NCCc1ccccc1 [phenformin, 2-(N-phenethylcarbamimidoyl)guanidine]
sensitivity of cells lacking mtDNA to phenformin (143B Rho cells): insensitive to phenformin | phenformin sensitivity at intermediate glucose ([7]; 1.5-3.0 mM glucose): substantial sensitivity persisted | sensitivity of BxPC3 cells to phenformin ([7]; BxPC3 pancreatic cancer cell line): sensitive | effect of GLUT3 over-expression on phenformin sensitivity ([7]; cells with impaired glucose utilization, 0.75 mM glucose): almost completely rescued the phenformin sensitivity | effect of NDI1 expression on the effects of phenformin on proliferation ([7]; cells with mutations in Complex I, 0.75 mM glucose): almost completely rescued the effects of phenformin | phenformin sensitivity in 0.75 versus 10 mM glucose ([7]; low glucose sensitive cell lines, particularly those with impaired glucose utilization): more sensitive to phenformin in 0.75 than 10 mM glucose | sensitivity to low glucose after culture in phenformin (Cal-62 cells): decrease in sensitivity to low glucose | wild-type mtDNA content after culture in phenformin (Cal-62 cells): significantly enriched wild-type mtDNA content | effects of phenformin on xenograft growth after introduction of NDI1 [8]: rescued | growth of tumour xenografts (BxPC3 xenografts): inhibited the growth | growth of tumour xenografts (NCI-H929 xenografts): inhibited the growth | growth of tumour xenografts (U-937 xenografts): inhibited the growth | growth of tumour xenografts (Cal-62 xenografts): inhibited the growth | growth of tumour xenografts (KMS-26 xenografts; KMS-26 (poor glucose consumption), phenformin 1.7 mg/ml in drinking water): inhibited the growth | effects of phenformin on xenograft growth after over-expression of GLUT3 (KMS-26 xenografts; KMS-26 cells over-expressing GLUT3): rescued | effect of NDI1 expression on the effects of phenformin on oxygen consumption [9]: almost completely rescued the effects of phenformin
